Columns and labels:
[1] = Residual propylene hydroformylation activity after heat treatment, Ligand D catalyst (Table 1); settings: fresh catalyst control, no heat treatment
Experimental: (§1) About 20 milliliters of the solution was charged to a glass reactor via a syringe after purging the reactor with nitrogen (see Examples 14-20 below). After closing the reactor, the system was again purged with nitrogen and place in an oil bath heated to 100° C. The hydroformylation reaction in each experiment was conducted at a total gas pressure of 160 psig. The target partial pressure of hydrogen, carbon monoxide, and propylene being about 45 psia, 45 psia, and 5 psia respectively, with the remainder being nitrogen. The flows of the feed gases (carbon monoxide, hydrogen, propylene, and nitrogen) were controlled individually with mass flow meters. The feed gases were dispersed into the precursor solution via stainless steel 7-micron filters used as spargers. The unreacted portion of the feed gases stripped out the product aldehydes. Each experiment was operated for 24 hours under the above conditions. The activity is defined as the observed reaction rate divided by the predicted reaction rate. The reaction rates are expressed in terms of gram moles per liter per hour.
(§2) The same procedure as in Example 3 was followed except 2 milliliters of 1,3-butadiene was added to the generated catalyst and stirred for 5 minutes. Excess 1,3-butadiene was then removed by alternate evacuation and flushing with nitrogen. The resulting solution was heated at 125° C. as in Example 2, and 20 milliliters of the resulting solution was transferred to a glass reactor as in Example 2 and the activity determined.
The same procedure as in Example 4 was followed except Ligand D (as identified herein) was employed in place of Ligand F. The results are given in Table 1.
The same procedure as in Example 10 was followed except the fresh catalyst solution contained Ligand D in place of Ligand F. The results are given in Table 1.

[2] = Residual propylene hydroformylation activity after heat treatment, Ligand F catalyst (Table 1)
Experimental: A catalyst solution (100 milliliters) was generated in a six ounce Fisher Porter Bottle by dissolving 0.063 grams of rhodium dicarbonyl 2,4-pentanedionate, 0.8 grams of Ligand F, 20 grams of n-butyraldehyde, and 78.7 grams of tetraethylene glycol dimethyl ether, subsequently alternately evacuating and flushing with nitrogen; and finally adding 60 psi of CO:H2, and placing the bottles in a 100° C. oil bath for 1 hour.
as §1, with “After” for “About 20 milliliters of the solution was charged to a glass reactor via a syringe after purging the reactor with nitrogen (see Examples 14-20 below). After”
The same procedure as in Example 2 was followed with the exception that a slow stream of 1,2-propadiene was purged through the initially generated catalyst solution for 5 minutes. Excess was then removed by alternately evacuating and flushing with nitrogen. The resulting solution was heated at 125° C. as in Example 2, and 20 milliliters of the resulting solution was transferred to a glass reactor as in Example 2 and the activity determined.
as §2
The same procedure as in Example 4 was followed with the exception that 50 milliliters of a catalyst solution generated as in Example 2 was treated with 0.5 milliliters of 2-methyl-1,3-butadiene (isoprene) in place of 1,3-butadiene.
A catalyst solution (20 milliliters) was generated in a Fisher Porter Bottle as in Example 2 under 60 psi CO:H2 for 1 hour, then cooled to room temperature and treated with 0.5 milliliters of 1,3-butadiene. The solution was removed from the Fisher Bottle by hypodermic syringe and transferred to a 100 milliliter stirred stainless vessel and maintained at 140° C. under 15 psi nitrogen for 14 hours. The resulting solution was then transferred to the glass reactors as in Example 2, and the residual catalyst activity measured. […]
The same procedure as in Example 8 was followed except allene was employed in place of 1,3-butadiene, and the resulting solution heated at 140° C. for 48 hours without removing excess allene.
A 20 milliliter sample of freshly generated catalyst solution (prepared as in Example 2) was charged to the glass reactors and the activity measured.
The same procedure as in Example 8 was followed except 0.4 grams of 1,3-cyclohexadiene was employed in place of 1,3-butadiene.

[3] = Propylene hydroformylation rate and colour of (TPP)3 Rh(CO)H catalyst after thermal treatment; settings: for hydroformylation rate: control without butadiene, 100° C.; for color change of catalyst solution: control
Experimental: TPP is triphenylphosphine. 15 grams of this bright yellow solution was charged to a Fisher Porter bottle under inert gas. To this solution was added 20 psi of butadiene with stirring. The pressure dropped as the butadiene dissolved into the solution. The reactor was repressured twice with butadiene (20 psig) and then the reaction was place under a total of 45 psig with nitrogen. The solution was heated to 120° C. for 15 minutes. […] At ambient temperature, the reaction was placed under vacuum for 4 hours to remove any excess butadiene.
Since the solvent has a very high boiling point, the concentration of rhodium was assumed to have remained unchanged while under vacuum. Indeed, no change in volume was detected visually while under vacuum. 15.0 milliliters of the 275 parts per million solution was charged to a 100 milliliter autoclave.
This example is a control for Example 23. 15 grams of the catalyst solution prepared in Example 23 was charged to a Fisher Porter bottle under inert gas. 45 psig of nitrogen was added to the reaction vessel, then the reaction was heated to 120° C. for 15 minutes. […] 15.0 milliliters of the 275 parts per million solution was charged to a 100 milliliter autoclave.
A catalyst solution was prepared by adding 113 milligrams of (TPP)3 Rh(CO)H to 40.4 grams Filmer IBT® available from Union Carbide Corporation, Danbury, Conn., resulting in a rhodium concentration of 312 parts per million. At this point, the rhodium complex was a suspended in the solvent. Approximately 20 grams of this solution of (TPP)3 Rh(CO)H in tetraglyme was charged to a Fisher Porter bottle under inert gas. To this solution was added 30 psi of butadiene with stirring. The pressure dropped to 20 psig as the butadiene dissolved into the solution. The reactor was repressured twice with butadiene (30 psig) and then the pressure was adjusted to 60 psig with nitrogen. The solution was placed into 140° C. oil bath, which caused the reaction to become homogeneous within a minute. The reaction was maintained at 140° C. for 50 minutes. […] The reaction vessel was removed from the oil bath and the butadiene was vented from the reactor while the reaction was hot. After gas evolution ceased, the reaction vessel was placed carefully placed under dynamic vacuum until gas evolution had ceased for 10 minutes. The reaction was then placed under a slight positive pressure of nitrogen. […] 15.0 milliliters of the 284 parts per million solution was charged to a 100 milliliter autoclave.
This example serves as a control for Example 25. Approximately 20 grams of the solution prepared in Example 25 was charged to a Fisher Porter bottle under inert gas. 60 psig of nitrogen was added to the reaction vessel, then the reaction was heated to 140° C. for approximately 110 minutes. […] This solution was place into and out of the oil bath at the same time as the solution in Example 25. After thermal treatment, 10 weight percent of triphenylphosphine was added to the reaction mixture. […] 15 milliliters of the 284 parts per million solution was charged to a 100 milliliter autoclave.

[4] = Decomposition of free Ligand F and deactivated complex formation at 145° C. by HPLC (FIG. 3); type: physicochemical; settings: nitrogen 80 psig, no diene
Experimental: A catalyst solution (5 milliliters), 600 parts per million in rhodium and 0.8 weight percent in Ligand F generated as in Example 2 was charged to a 3 ounce Fisher Porter bottle and alternately flushed evacuated with nitrogen, then placed in a 145° C. oil bath under nitrogen (80 psig total pressure) and then monitored by HPLC at 1 and 3 hours for the Ligand F and deactivated complex concentrations. The free Ligand F concentration was 0.75, 0.57 and 0.37 weight percent at 0, 1 and 3 hours, respectively, while the deactivated complex concentration was 0.010, 0.57 and 0.89 weight percent at 0, 1 and 3 hours respectively.
The same procedure as in Example 21 was followed except the catalyst solution was treated with 1 milliliter of 1,3-butadiene and then heated at 145° C. for 3 hours (45 psig total pressure). The free Ligand F concentration measured by HPLC (high pressure liquid chromatography) was 0.75, 0.66, and 0.62 weight percent at 0, 1 and 3 hours, respectively, while the deactivated complex concentration was 0.010, 0.012, and 0.05 weight percent at 0, 1 and 3 hours respectively.

[5] = 140° C./24 hours, excess diene present
[6] = 125° C./50 hours, no excess diene
[7] = 125° C./24 hours, no excess diene
[8] = 140° C./48 hours, excess diene present

COc1cc(-c2cc(OC)cc(C(C)(C)C)c2Op2oc3ccccc3c3ccccc3o2)c(Op2oc3ccccc3c3ccccc3o2)c(C(C)(C)C)c1 [Ligand D, 6,6'-[[3,3'-bis(1,1-dimethylethyl)-5,5'-dimethoxy-[1,1' -biphenyl]-2,2'-diyl]bis(oxy)]bis-dibenzo[d,f][1,3,2]dioxaphosphepin]
Final Rate [1]: 1.16 gram moles per liter per hour

C1=CCCC=C1 [1,3-cyclohexadiene]
% Activity [2, 5]: 4.13%
Final Rate [2, 5]: 0.09 gram moles per liter per hour

C=CC(=C)C [Isoprene, 2-methyl-1,3-butadiene]
% Activity [2, 6]: 73.8%
Final Rate [2, 6]: 1.55 gram moles per liter per hour

c1ccc(P(c2ccccc2)c2ccccc2)cc1 [triphenylphosphine, reference compound]
hydroformylation rate ([3]; after 120° C. for 15 minutes under nitrogen, 275 ppm Rh, 115 psig): 0.8 gmol/L-h
hydroformylation rate ([3]; after 140° C. for approximately 110 minutes, 284 ppm Rh, 95 psig): 0.3 gmol/L-h
color change of catalyst solution ([3]; 120° C. for 15 minutes under nitrogen): turn from bright yellow to dark brown
color change of catalyst solution ([3]; 140° C. for approximately 110 minutes under nitrogen): turn from bright yellow to dark brown

C=C=C [Allene, 1,2-propadiene]
% Activity [2, 7]: 101%
Final Rate [2, 7]: 2.22 gram moles per liter per hour
% Activity [2, 8]: 47.2%
Final Rate [2, 8]: 1.03 gram moles per liter per hour

CC(C)(C)c1cc(-c2cc(C(C)(C)C)cc(C(C)(C)C)c2Op2oc3ccccc3c3ccccc3o2)c(Op2oc3ccccc3c3ccccc3o2)c(C(C)(C)C)c1 [Ligand F]
% Activity [2, 7]: 10.0%
Final Rate [2, 7]: 0.22 gram moles per liter per hour
Final Rate ([2]; fresh catalyst control, no heat treatment): 2.18 gram moles per liter per hour
deactivated complex concentration ([4]; 0 hours): 0.010 weight percent
free Ligand F concentration ([4]; 0 hours): 0.75 weight percent
deactivated complex concentration ([4]; 1 hour): 0.57 weight percent
free Ligand F concentration ([4]; 1 hour): 0.57 weight percent
deactivated complex concentration ([4]; 3 hours): 0.89 weight percent
free Ligand F concentration ([4]; 3 hours): 0.37 weight percent
